Measurements: patent publication US20260263468A1 (Fundación Instituto de Investigación Sanitaria Fundación …, priority 2023, published 2026)

Legend:
C2C12 [1] = assay: Western blot of myogenesis markers during differentiation; type: cell-based; settings: 1 μM
Method: Cells were lysed with RIPA buffer and protein concentration was determined by BCA. […] Variations in intensity were expressed as % of basal (day 0) and expressed as mean±SEM. All results were calculated as a percentage of non-differentiated controls to minimize the intrinsic variation among different experiments.

C2C12 [2] = assay: AMPK phosphorylation assay kit (short time points); type: cell-based; settings: myoblast, 1 μM, 10 min after switching to 2% HS; control 1.97±0.17
Method: Assay was performed with the AMPK phosphorilation assay kit (Abnova Corporation, Jhouzih St, Taiwan) as manufactor instructions and pAMPK was measured at λex/em 530/585 nm and 360/450 nm for total protein with Tecan Infinite.

C2C12 myobundles = assay: C2C12 3D myobundle with IL-6 ± dipyridamole; type: cell-based; settings: IL-6 2.5 μg/ml ± dipyridamole 1 μM, 14 days; Sham 890±39
Excerpt: C2C12 myobundles were fabricated following the protocol described by Bursac group (see references in ref. 44). Briefly, molds of polydimethylsiloxane (PDMS) designed for 12-well plates were created from Teflon masters with semicylindrical wells. These molds were sterilized, coated with 0.2% (w/v) Pluronic F-127 (Invitrogen) to prevent tissue adhesion, and paired with laser-cut Cerex frames (9×9 mm^2, 1-mm-wide rim) for myobundle attachment. The frames served as an anchor and guide during hydrogel compaction, ensuring uniaxial cell alignment. C2C12 cells were encapsulated in a hydrogel solution, including bovine fibrinogen (Sigma-Aldrich), matrigel (Corning), bovine thrombin (Sigma-Aldrich), and growth medium as concentration of bursac group indicates Referencias. The cell/hydrogel mixture was polymerized in the PDMS molds, and myobundles were cultured in a humidified chamber at 37° C., in 95% air and 5% CO2. After 4 days, the frames with myobundles were suspended in DM with treatments. DM and treatments are replaced every two days. GM and DM media contained 6-aminocaproic acid to reduce fibrinolysis. […] After the 14 days of treatment a bright-field photograph was taken to analyze the thickness of the fiber at its midpoint, and subsequently, they were embedded in OCT medium. […]

[3] = test system: K/B×N serum transfer-induced arthritis; assay: Serum CRP ELISA and serum cytokine array; type: in vivo, C57BL/6J mice; settings: arthritic mice + dipyridamole
Method: For this purpose, they performed an array of protein expression of pro- and anti-inflammatory cytokines and chemokines in serum by using the Mouse Cytokine Array Q1 (RayBiotech, EEUU) which, simultaneously, detects 20 cytokines. The cytokines concentration was measured by fluorescence using GenePix following manufacture protocol for serum samples.
CRP concentration was measured using the colorimetric Mouse CRP ELISA kit following manufacture protocol for serum samples (Crystal Chem, USA). Absorbance was measured at 450 nm using a microplate reader Tecan Spark 20M.
Serum CRP were determined by Mouse CRP ELISA Kit (Crystal Chem, #80634), according to the instructions of the manufacturer. Absorbance was measured at 450 nm using a microplate reader Tecan Spark 20M.
(§1) The cytokines concentration was measured by fluorescence using GenePix 4000B following manufacture protocol for serum and frozen samples. Serum samples were used at 2-fold sample dilution. Frozen gastronemius were crushed using a mortar and a pestle cooled with liquid nitrogen. Next, gastronemius were homogenized in a sonicator and the protein isolated in the supernatant quantified with BCA assay. We used 100 μL (1 mg/ml) of total gastronemius protein for cytokine and chemokine array assay.

[4] = test system: K/B×N serum transfer-induced arthritis; assay: Cytokine and chemokine array in gastronemius muscle; type: in vivo, C57BL/6J mice; settings: acute model, RA + Dipy
Method: as §1

[5] = test system: K/B×N serum transfer-induced arthritis; assay: Western blot of gastronemius, acute model
[6] = healthy mice, dipyridamole alone, Sham 100±1%

Compound: OCCN(CCO)c1nc(N2CCCCC2)c2nc(N(CCO)CCO)nc(N3CCCCC3)c2n1 [dipyridamole, 2,6-bis(Diethanolamino)-4,8-dipiperidinopyrimido[5,4-d]pyrimidine]
- PAX7 protein expression (% of basal) (C2C12 [1]; day 1, control 315±58%): revert the effect to control levels
- MyoD protein expression (% of basal) (C2C12 [1]; day 2, control 182±8%): 162±29%
- Myf5 protein expression (% of basal) (C2C12 [1]; first 2 days of differentiation): did not modulate
- AMPK activation (C2C12 [2]): 2.89±0.29
- Myobundle thickness (C2C12 myobundles): did not lead to an alteration of the muscle fiber
- Serum IL-9 ([3]; arthritic 4.3±1.8): 13.1 ± 2.6 pg/mL
- Serum VEGF ([3]; arthritic 90±13.1): 221 ± 40.3 pg/mL
- Serum IL-10 ([3]; arthritic 117.6±5.2): 166 ± 10 pg/mL
- Serum CRP ([3]; arthritic 4098±560, sham 2861±893): 3543 ± 586 ng/mL
- Muscle IL-1α [4]: 3.5 ± 0.2 pg/mL
- Muscle IL-1β [4]: 13.9 ± 1.9 $$ pg/ml
- Muscle IL-2 [4]: 8 ± 2.8 pg/mL
- Muscle IL-3 [4]: 1 ± 0.2 pg/mL
- Muscle IL-4 [4]: 23 ± 1.9 pg/mL
- Muscle IL-5 [4]: 5.5 ± 0.8 pg/mL
- Muscle IL-6 [4]: 6.9 ± 0.6 **/$ pg/ml
- Muscle IL-9 [4]: 13.1 ± 2.5 pg/mL
- Muscle IL-10 [4]: 32.5 ± 2.3 **/ $ pg/ml
- Muscle IL-13 [4]: 11.3 ± 0.9 pg/mL
- Muscle IL-17 [4]: 7 ± 1.3 pg/mL
- Muscle INFγ [4]: 48.7 ± 4.8 */$ pg/ml
- Muscle KC (CXCL1) [4]: 1.2 ± 0.7 pg/mL
- Muscle M-CSF [4]: 11.8 ± 1.6 pg/mL
- Muscle RANTES [4]: 4.7 ± 0.5 pg/mL
- Muscle TNF-α [4]: 24.6 ± 1.2 pg/mL
- Muscle VEGF [4]: 122 ± 12.9 pg/mL
- Muscle MCP-1 ([4]; listed as Dipy): 43.8 ± 9.9 */$ pg/ml
- Muscle MCP-1 ([4]; listed as dipy): 43.8 ± 9.9 pg/mL
- CK protein expression ([5]; RA+Dipy, RA 77.98±10.81%, Sham 100±0%): 393.4±55.09%
- A2B receptor expression in gastronemius ([5]; arthritic mice + dipyridamole, arthritic 35±9%, Sham 100±1%): 160±14%
- AMPK phosphorylation in gastronemius ([5]; arthritic mice + dipyridamole, arthritic 53±7%, sham 100±1%): 152±5%
- MHC protein expression in gastronemius ([5]; arthritic mice + dipyridamole, arthritic 60±7%, sham 100±1%): 184±6%
- A2A receptor expression in gastronemius ([5]; arthritic mice + dipyridamole, arthritic 71±3%, Sham 100±1%): 123±6%
- Pax7 protein expression in gastronemius ([5]; arthritic mice + dipyridamole, arthritic 151±13%, sham 100±1%): 274±11%
- p21 protein expression ([5]; arthritic mice + dipyridamole, arthritic 221±38%): 64±15%
- p16 protein expression ([5]; arthritic mice + dipyridamole, arthritic 392±25%): 139±32%
- Pax7 and MHC protein expression in gastronemius ([5]; healthy mice, dipy alone vs sham): non-significant increase
- A2A receptor expression in gastronemius [5, 6]: 118.8±11.30%
- A2B receptor expression in gastronemius [5, 6]: 167.6±10.63%
- pAMPK expression in gastronemius [5, 6]: 194.2±5.2%
